# Experiments:
# Experiment in all cases: PRESTO-Tango GPCR screen
# Assay type in all cases: cell-based
# Details in all cases: 100 µM
# MRGPRX2 = target: T1, MRGPRX2 (Homo sapiens, UniProt Q96LB1)
# T1 construct: purchased PRESTO-Tango GPCR kit (Roth lab / Addgene)
# Summary of the method: (§1)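 Receptor activation is detected through β-arrestin-TEV cleavage releasing tTA, which drives luciferase in HTLA cells. Transfected cells receive compound (100 μM final) in DMEM with 10 mM HEPES for 20 h; Bright-Glo luminescence is divided by the PBS-control signal.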
# MRGPRF = target: T2, MRGPRF (Homo sapiens, UniProt Q96AM1)
# T2 construct: purchased PRESTO-Tango GPCR kit (Roth lab / Addgene)
# T2 sequence (Q96AM1 whole entry): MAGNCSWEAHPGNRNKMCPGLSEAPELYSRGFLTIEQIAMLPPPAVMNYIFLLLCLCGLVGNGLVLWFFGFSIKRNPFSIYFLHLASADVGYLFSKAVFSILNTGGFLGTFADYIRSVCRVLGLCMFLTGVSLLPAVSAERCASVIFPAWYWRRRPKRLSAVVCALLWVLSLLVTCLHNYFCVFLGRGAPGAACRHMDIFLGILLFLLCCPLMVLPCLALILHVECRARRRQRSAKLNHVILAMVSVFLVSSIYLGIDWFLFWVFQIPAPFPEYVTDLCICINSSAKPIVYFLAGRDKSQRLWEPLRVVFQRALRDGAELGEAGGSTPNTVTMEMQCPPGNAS
# Summary of the method: as §1
# GPR56 = target: T3, GPR56 (Homo sapiens, UniProt Q9Y653)
# T3 construct: purchased PRESTO-Tango GPCR kit (Roth lab / Addgene)
# Summary of the method: as §1
# CXCR1 = target: T4, CXCR1 (Homo sapiens, UniProt P25024)
# T4 construct: purchased PRESTO-Tango GPCR kit (Roth lab / Addgene)
# Summary of the method: as §1
# GPR37L1 = target: T5, GPR37L1 (Homo sapiens, UniProt O60883)
# T5 construct: purchased PRESTO-Tango GPCR kit (Roth lab / Addgene)
# Summary of the method: as §1
# GPR17 = target: T6, GPR17 (Homo sapiens, UniProt Q13304)
# T6 construct: purchased PRESTO-Tango GPCR kit (Roth lab / Addgene)
# Summary of the method: as §1
# ADRA2A = target: T7, ADRA2A (Homo sapiens, UniProt P08913)
# T7 construct: purchased PRESTO-Tango GPCR kit (Roth lab / Addgene)
# Summary of the method: as §1
# TAAR2 = target: T8, TAAR2 (Homo sapiens, UniProt Q9P1P5)
# T8 construct: purchased PRESTO-Tango GPCR kit (Roth lab / Addgene)
# Summary of the method: as §1
# GPR126 = target: T9, GPR126 (Homo sapiens, UniProt Q86SQ4)
# T9 construct: purchased PRESTO-Tango GPCR kit (Roth lab / Addgene)
# T9 sequence (Q86SQ4 38-1221): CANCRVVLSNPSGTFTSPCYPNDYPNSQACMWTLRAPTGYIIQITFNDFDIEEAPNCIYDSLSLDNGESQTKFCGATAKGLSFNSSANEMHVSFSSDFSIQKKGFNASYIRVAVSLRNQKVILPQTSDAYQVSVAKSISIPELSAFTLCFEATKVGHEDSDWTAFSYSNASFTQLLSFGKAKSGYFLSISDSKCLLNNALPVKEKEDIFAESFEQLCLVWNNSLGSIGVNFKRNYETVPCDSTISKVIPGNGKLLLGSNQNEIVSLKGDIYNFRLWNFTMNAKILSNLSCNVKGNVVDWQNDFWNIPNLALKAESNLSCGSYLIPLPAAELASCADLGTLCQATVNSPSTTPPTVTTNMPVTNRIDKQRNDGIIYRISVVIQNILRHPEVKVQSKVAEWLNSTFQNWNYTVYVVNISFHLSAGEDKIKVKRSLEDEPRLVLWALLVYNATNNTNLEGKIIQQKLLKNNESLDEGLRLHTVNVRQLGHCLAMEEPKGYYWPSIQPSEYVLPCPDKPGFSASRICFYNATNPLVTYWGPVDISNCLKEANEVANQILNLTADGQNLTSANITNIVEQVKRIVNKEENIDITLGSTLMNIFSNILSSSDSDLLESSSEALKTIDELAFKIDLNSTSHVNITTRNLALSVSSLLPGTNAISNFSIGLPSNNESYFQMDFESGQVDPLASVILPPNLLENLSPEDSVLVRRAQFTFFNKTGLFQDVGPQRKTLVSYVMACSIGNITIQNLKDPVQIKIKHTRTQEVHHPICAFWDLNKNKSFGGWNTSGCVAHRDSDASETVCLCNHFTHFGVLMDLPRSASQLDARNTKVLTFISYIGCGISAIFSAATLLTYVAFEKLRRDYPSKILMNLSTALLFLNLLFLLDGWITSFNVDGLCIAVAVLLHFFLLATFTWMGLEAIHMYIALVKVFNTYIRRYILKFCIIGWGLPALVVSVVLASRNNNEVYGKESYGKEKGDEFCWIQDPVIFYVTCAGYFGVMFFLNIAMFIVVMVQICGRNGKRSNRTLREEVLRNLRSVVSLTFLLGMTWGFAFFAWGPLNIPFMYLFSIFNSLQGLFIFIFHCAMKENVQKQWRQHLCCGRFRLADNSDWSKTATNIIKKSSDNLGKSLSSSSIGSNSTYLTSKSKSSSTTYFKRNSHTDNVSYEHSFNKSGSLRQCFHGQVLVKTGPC
# Summary of the method: as §1
# GPR68 = target: T10, GPR68 (Homo sapiens, UniProt Q15743)
# T10 construct: purchased PRESTO-Tango GPCR kit (Roth lab / Addgene)
# T10 sequence (Q15743 whole entry): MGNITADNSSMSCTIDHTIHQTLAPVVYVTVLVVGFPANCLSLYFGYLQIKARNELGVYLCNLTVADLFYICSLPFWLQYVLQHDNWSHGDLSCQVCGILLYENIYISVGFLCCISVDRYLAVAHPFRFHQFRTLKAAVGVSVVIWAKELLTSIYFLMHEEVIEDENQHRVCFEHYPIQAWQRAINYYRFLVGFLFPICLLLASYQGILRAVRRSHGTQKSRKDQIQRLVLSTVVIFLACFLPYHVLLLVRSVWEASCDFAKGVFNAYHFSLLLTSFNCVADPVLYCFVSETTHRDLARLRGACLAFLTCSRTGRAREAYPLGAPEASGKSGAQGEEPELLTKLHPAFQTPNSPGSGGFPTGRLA
# Summary of the method: as §1
# LPAR5 = target: T11, LPAR5 (Homo sapiens, UniProt Q9H1C0)
# T11 construct: purchased PRESTO-Tango GPCR kit (Roth lab / Addgene)
# Summary of the method: as §1
# PTGER3 = target: T12, PTGER3 (Homo sapiens, UniProt P43115)
# T12 construct: purchased PRESTO-Tango GPCR kit (Roth lab / Addgene)
# Summary of the method: as §1
# GPR21 = target: T13, GPR21 (Homo sapiens, UniProt Q99679)
# T13 construct: purchased PRESTO-Tango GPCR kit (Roth lab / Addgene)
# Summary of the method: as §1
# LPAR6 = target: T14, LPAR6 (Homo sapiens, UniProt P43657)
# T14 construct: purchased PRESTO-Tango GPCR kit (Roth lab / Addgene)
# Summary of the method: as §1
# GPRC5A = target: T15, GPRC5A (Homo sapiens, UniProt Q8NFJ5)
# T15 construct: purchased PRESTO-Tango GPCR kit (Roth lab / Addgene)
# T15 sequence (Q8NFJ5 whole entry): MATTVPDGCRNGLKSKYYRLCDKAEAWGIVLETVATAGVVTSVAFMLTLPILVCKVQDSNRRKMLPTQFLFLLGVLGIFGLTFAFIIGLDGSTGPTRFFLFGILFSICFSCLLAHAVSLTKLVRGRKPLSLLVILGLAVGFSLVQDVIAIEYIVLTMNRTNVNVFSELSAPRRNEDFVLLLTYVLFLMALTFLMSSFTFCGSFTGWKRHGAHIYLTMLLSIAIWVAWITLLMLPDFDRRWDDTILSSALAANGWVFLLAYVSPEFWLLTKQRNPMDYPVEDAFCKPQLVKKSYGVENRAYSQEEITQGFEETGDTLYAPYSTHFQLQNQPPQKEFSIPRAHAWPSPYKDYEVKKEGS
# Summary of the method: as §1
# GPR158 = target: T16, GPR158 (Homo sapiens, UniProt Q5T848)
# T16 construct: purchased PRESTO-Tango GPCR kit (Roth lab / Addgene)
# Summary of the method: as §1
# AGTR1 = target: T17, AGTR1 (Homo sapiens, UniProt P30556)
# T17 construct: purchased PRESTO-Tango GPCR kit (Roth lab / Addgene)
# Summary of the method: as §1
# HCA1 = target: T18, HCA1 (Homo sapiens, UniProt Q9BXC0)
# T18 construct: purchased PRESTO-Tango GPCR kit (Roth lab / Addgene)
# Summary of the method: as §1
# F2RL3 = target: T19, F2RL3 (Homo sapiens, UniProt Q96RI0)
# T19 construct: purchased PRESTO-Tango GPCR kit (Roth lab / Addgene)
# T19 sequence (Q96RI0 18-385): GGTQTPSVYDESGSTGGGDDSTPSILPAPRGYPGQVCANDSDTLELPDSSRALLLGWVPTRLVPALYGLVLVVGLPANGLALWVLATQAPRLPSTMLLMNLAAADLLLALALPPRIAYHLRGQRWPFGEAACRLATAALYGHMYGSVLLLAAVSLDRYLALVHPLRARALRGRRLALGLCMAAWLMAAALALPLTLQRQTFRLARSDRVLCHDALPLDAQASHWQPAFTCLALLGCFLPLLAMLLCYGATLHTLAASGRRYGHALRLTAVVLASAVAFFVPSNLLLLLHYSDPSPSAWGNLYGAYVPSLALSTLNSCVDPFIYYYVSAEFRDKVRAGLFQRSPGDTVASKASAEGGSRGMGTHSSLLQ
# Summary of the method: as §1
# ELTD1 = target: T20, ELTD1 (Homo sapiens, UniProt Q9HBW9)
# T20 construct: purchased PRESTO-Tango GPCR kit (Roth lab / Addgene)
# Summary of the method: as §1
# GPR1 = target: T21, GPR1 (Homo sapiens, UniProt P46091)
# T21 construct: purchased PRESTO-Tango GPCR kit (Roth lab / Addgene)
# T21 sequence (P46091 whole entry): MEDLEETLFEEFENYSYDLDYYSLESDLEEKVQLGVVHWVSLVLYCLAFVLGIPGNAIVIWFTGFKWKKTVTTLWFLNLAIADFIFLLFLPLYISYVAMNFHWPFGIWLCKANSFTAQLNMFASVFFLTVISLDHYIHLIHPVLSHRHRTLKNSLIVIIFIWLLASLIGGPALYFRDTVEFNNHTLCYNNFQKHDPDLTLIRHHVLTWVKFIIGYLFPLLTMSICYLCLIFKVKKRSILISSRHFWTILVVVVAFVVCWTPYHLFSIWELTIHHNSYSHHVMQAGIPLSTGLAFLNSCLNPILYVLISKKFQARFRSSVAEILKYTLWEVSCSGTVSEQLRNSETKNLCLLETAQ
# Summary of the method: as §1
# GPR182 = target: T22, GPR182 (Homo sapiens, UniProt O15218)
# T22 construct: purchased PRESTO-Tango GPCR kit (Roth lab / Addgene)
# T22 sequence (O15218 whole entry): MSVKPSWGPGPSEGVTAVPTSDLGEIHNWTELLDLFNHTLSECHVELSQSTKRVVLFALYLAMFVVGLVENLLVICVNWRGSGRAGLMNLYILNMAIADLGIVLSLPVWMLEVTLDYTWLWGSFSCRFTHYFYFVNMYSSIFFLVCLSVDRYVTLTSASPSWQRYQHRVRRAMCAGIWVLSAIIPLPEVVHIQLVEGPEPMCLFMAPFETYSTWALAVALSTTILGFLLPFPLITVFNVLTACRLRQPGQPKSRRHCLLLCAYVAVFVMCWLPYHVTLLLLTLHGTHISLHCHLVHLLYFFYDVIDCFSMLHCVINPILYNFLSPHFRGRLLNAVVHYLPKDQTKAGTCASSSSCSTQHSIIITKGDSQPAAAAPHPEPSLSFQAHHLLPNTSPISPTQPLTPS
# Summary of the method: as §1
# GPR135 = target: T23, GPR135 (Homo sapiens, UniProt Q8IZ08)
# T23 construct: purchased PRESTO-Tango GPCR kit (Roth lab / Addgene)
# T23 sequence (Q8IZ08 whole entry): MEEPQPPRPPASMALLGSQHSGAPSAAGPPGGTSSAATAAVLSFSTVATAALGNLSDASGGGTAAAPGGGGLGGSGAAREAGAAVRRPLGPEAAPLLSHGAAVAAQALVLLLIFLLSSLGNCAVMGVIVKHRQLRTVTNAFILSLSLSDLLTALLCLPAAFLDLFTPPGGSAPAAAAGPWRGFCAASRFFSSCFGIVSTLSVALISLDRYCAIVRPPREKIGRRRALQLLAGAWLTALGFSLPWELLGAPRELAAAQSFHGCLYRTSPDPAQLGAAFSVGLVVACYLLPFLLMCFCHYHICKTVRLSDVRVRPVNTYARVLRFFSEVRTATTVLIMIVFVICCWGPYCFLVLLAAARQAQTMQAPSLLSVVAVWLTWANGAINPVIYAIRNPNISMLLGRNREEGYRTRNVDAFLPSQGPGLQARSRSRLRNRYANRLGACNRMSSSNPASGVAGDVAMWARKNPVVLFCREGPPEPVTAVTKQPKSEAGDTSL
# Summary of the method: as §1
# GPR85 = target: T24, GPR85 (Homo sapiens, UniProt P60893)
# T24 construct: purchased PRESTO-Tango GPCR kit (Roth lab / Addgene)
# Summary of the method: as §1
# GPR174 = target: T25, GPR174 (Homo sapiens, UniProt Q9BXC1)
# T25 construct: purchased PRESTO-Tango GPCR kit (Roth lab / Addgene)
# Summary of the method: as §1
# PTH2R = target: T26, PTH2R (Homo sapiens, UniProt P49190)
# T26 construct: purchased PRESTO-Tango GPCR kit (Roth lab / Addgene)
# Summary of the method: as §1
# HTR2A = target: T27, HTR2A (Homo sapiens, UniProt P28223)
# T27 construct: purchased PRESTO-Tango GPCR kit (Roth lab / Addgene)
# Summary of the method: as §1
# TAAR5 = target: T28, TAAR5 (Homo sapiens, UniProt O14804)
# T28 construct: purchased PRESTO-Tango GPCR kit (Roth lab / Addgene)
# T28 sequence (O14804 whole entry): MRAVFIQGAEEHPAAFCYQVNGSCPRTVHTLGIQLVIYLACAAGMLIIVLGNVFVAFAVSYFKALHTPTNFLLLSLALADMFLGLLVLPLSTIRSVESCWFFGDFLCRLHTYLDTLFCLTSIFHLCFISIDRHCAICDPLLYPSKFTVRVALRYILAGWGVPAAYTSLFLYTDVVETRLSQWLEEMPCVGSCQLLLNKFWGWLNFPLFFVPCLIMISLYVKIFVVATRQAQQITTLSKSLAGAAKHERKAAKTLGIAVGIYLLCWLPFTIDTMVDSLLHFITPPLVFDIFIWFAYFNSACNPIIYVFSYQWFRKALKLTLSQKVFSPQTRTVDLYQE
# Summary of the method: as §1
# GPR31 = target: T29, GPR31 (Homo sapiens, UniProt O00270)
# T29 construct: purchased PRESTO-Tango GPCR kit (Roth lab / Addgene)
# T29 sequence (O00270 whole entry): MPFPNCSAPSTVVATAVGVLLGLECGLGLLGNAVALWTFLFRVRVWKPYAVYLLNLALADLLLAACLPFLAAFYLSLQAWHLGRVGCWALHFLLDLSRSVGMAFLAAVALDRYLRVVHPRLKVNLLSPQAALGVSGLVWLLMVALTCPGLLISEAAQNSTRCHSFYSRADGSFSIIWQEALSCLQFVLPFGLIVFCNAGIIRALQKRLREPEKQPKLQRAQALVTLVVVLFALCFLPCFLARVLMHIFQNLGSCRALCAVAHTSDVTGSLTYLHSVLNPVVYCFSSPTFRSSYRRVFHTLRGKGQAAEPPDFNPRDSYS
# Summary of the method: as §1
# CCR8 = target: T30, CCR8 (Homo sapiens, UniProt P51685)
# T30 construct: purchased PRESTO-Tango GPCR kit (Roth lab / Addgene)
# T30 sequence (P51685 whole entry): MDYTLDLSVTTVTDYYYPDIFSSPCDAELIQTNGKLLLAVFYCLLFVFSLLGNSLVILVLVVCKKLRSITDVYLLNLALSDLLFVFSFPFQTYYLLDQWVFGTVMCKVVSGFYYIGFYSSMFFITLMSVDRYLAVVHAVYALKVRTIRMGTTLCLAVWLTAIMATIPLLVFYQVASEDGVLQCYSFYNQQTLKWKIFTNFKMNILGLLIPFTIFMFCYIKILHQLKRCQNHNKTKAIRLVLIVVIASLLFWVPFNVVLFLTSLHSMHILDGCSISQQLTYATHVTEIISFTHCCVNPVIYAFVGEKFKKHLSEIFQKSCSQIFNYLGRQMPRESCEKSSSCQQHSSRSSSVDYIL
# Summary of the method: as §1
# RXFP4 = target: T31, RXFP4 (Homo sapiens, UniProt Q8TDU9)
# T31 construct: purchased PRESTO-Tango GPCR kit (Roth lab / Addgene)
# Summary of the method: as §1
# GPR87 = target: T32, GPR87 (Homo sapiens, UniProt Q9BY21)
# T32 construct: purchased PRESTO-Tango GPCR kit (Roth lab / Addgene)
# Summary of the method: as §1
# FPR1 = target: T33, FPR1 (Homo sapiens, UniProt P21462)
# T33 construct: purchased PRESTO-Tango GPCR kit (Roth lab / Addgene)
# Summary of the method: as §1
# NMBR = target: T34, NMBR (Homo sapiens, UniProt P28336)
# T34 construct: purchased PRESTO-Tango GPCR kit (Roth lab / Addgene)
# Summary of the method: as §1
# GPR6 = target: T35, GPR6 (Homo sapiens, UniProt P46095)
# T35 construct: purchased PRESTO-Tango GPCR kit (Roth lab / Addgene)
# Summary of the method: as §1
SMILES,GPCR activation (heatmap value) (MRGPRX2),GPCR activation (heatmap value) (MRGPRF),GPCR activation (heatmap value) (GPR56),GPCR activation (heatmap value) (CXCR1),GPCR activation (heatmap value) (GPR37L1),GPCR activation (heatmap value) (GPR17),GPCR activation (heatmap value) (ADRA2A),GPCR activation (heatmap value) (TAAR2),GPCR activation (heatmap value) (GPR126),GPCR activation (heatmap value) (GPR68),GPCR activation (heatmap value) (LPAR5),GPCR activation (heatmap value) (PTGER3),GPCR activation (heatmap value) (GPR21),GPCR activation (heatmap value) (LPAR6),GPCR activation (heatmap value) (GPRC5A),GPCR activation (heatmap value) (GPR158),GPCR activation (heatmap value) (AGTR1),GPCR activation (heatmap value) (HCA1),GPCR activation (heatmap value) (F2RL3),GPCR activation (heatmap value) (ELTD1),further results
CC(C)Cc1ncc(CCCCNC(=N)N)[nH]c1=O [3-Homo],-0.6668,0.9987,-0.2489,0.5406,0.03037,0.06719,-0.8336,0.3187,0.0787,-0.3643,0.1689,-1.204,0.4357,0.3664,0.04883,-0.4311,0.01764,-0.6134,-0.0006117,0.08719,GPCR activation (heatmap value) (GPR1): 0.03802; GPCR activation (heatmap value) (GPR182): -0.244; GPCR activation (heatmap value) (GPR135): -0.1206; GPCR activation (heatmap value) (GPR85): -0.7717; GPCR activation (heatmap value) (GPR174): 0.4742; GPCR activation (heatmap value) (PTH2R): -0.1142; GPCR activation (heatmap value) (HTR2A): -0.1726; GPCR activation (heatmap value) (TAAR5): -0.4757; GPCR activation (heatmap value) (GPR31): 0.09636; GPCR activation (heatmap value) (CCR8): -1.739; GPCR activation (heatmap value) (RXFP4): -0.8625; GPCR activation (heatmap value) (GPR87): -0.5192; GPCR activation (heatmap value) (FPR1): -1.272; GPCR activation (heatmap value) (NMBR): 0.06446; GPCR activation (heatmap value) (GPR6): 0.1759
CC(C)Cc1ncc(CCCNC(=N)N)[nH]c1=O [compound 3],0.1651,0.6496,-0.03075,0.1868,-0.6695,0.1737,0.08001,0.1553,-0.3797,0.3673,0.04943,0.03461,1.034,0.5638,-0.3148,-0.2474,0.0619,0.05882,0.3497,0.3234,GPCR activation (heatmap value) (GPR1): -0.7172; GPCR activation (heatmap value) (GPR182): -0.4224; GPCR activation (heatmap value) (GPR135): -1.115; GPCR activation (heatmap value) (GPR85): -0.1892; GPCR activation (heatmap value) (GPR174): 0.3321; GPCR activation (heatmap value) (PTH2R): -0.2039; GPCR activation (heatmap value) (HTR2A): -0.2048; GPCR activation (heatmap value) (TAAR5): -0.8641; GPCR activation (heatmap value) (GPR31): 0.1606; GPCR activation (heatmap value) (CCR8): -0.8888; GPCR activation (heatmap value) (RXFP4): -0.6712; GPCR activation (heatmap value) (GPR87): -0.4548; GPCR activation (heatmap value) (FPR1): 0.7196; GPCR activation (heatmap value) (NMBR): 0.762; GPCR activation (heatmap value) (GPR6): -1.168
